Results reported in US20240374631A1, “A COMPOSITION FOR IMPROVING GUT MICROBIOTA, BEHAVIOURAL PATTERN, ALPHA-SYNUCLEIN LEVELS, SLEEP PATTERN AND/OR SERUM MELATONIN” (GN Corporation Co Ltd, priority 2021, published 2024).

System: gut microbiota
Test: Gut microbiome analysis (16S rRNA sequencing of fecal samples) in STAM model of NASH
Type: in vivo, C57BL/6J mice
Settings: post-intervention
From the text: The study is reported in accordance with Animal Research: Reporting of In Vivo Experiments (ARRIVE) guidelines. C57BL/6J mice were obtained from Japan SLC, Inc. (Japan). All animals used in this study were cared for under the following guidelines: Act on Welfare and Management of Animals (Ministry of the Environment, Japan, Act No. 105 of Oct. 1, 1973), standards relating to the care and management of laboratory animals and relief of pain (Notice No. 88 of the Ministry of the Environment, Japan, Apr. 28, 2006) and the guidelines for proper conduct of animal experiments (Science Council of Japan, Jun. 1, 2006). Protocol approvals were obtained from SMC Laboratories, Japan's IACUC (Study reference no: […] Mice were maintained in a specific pathogen-free (SPF) facility under controlled conditions of temperature (23±3° C.), humidity (50±20%), lighting (12-hour artificial light and dark cycles; light from 8:00 to 20:00) and air exchange. The STAM model of NASH was induced as previously described [D10]. Mice were given a single subcutaneous injection of 200 μg streptozotocin (STZ, Sigma-Aldrich, USA) solution 2 days after birth and fed with a high-fat diet (HFD, 57 kcal % fat, Cat #HFD32, CLEA Japan, Inc., Japan) from 4-9 weeks of age. All mice develop liver steatosis and diabetes and at […] mice had established steatohepatitis, histologically. Studygroups: There were five study groups, described below. Eight mice were included in each study group. Eight NASH mice were orally administered vehicle supplemented with AFO-202 Beta Glucan at a dose of 1 mg/kg in a volume of 5 mL/kg once daily from 6 to 9 weeks of age. Eight NASH mice were orally administered vehicle supplemented with Telmisartan at a dose of 10 mg/kg once daily from 6 to 9 weeks of age. Frequency: Fecal samples were collected at the 6 weeks of age (before administration) and 9 weeks of age (before sacrifice). Procedure: At 6 weeks of age, fecal samples were collected from each mouse by clean catch method. […] A sterile petri dish was placed on the bench. Gently massage the abdomen, position the bottom of mouse over a fresh petri dish, and collect 1-2 fecal pellets. At sacrifice, fecal samples were aseptically collected from cecum. The tubes with feces were placed on ice immediately. These tubes were snap frozen in liquid nitrogen and stored at -80° C. for shipping. In this analysis, the 16S rRNA sequence data acquired by the next-generation sequencer from the fecal […] was used to perform community analysis using the QIIME2 program for microbial community analysis. The raw read data in FASTQ format output from the next-generation sequencer was trimmed to remove adapter sequences and low QV regions that may be included in the data. Cutadapt was used to remove adapter sequences from DNA sequencing reads. Trimmomatic was used as read trimming tool for Illumina NGS data. The adapter sequence was trimmed using the adapter trimming program “cutadapt” if the Trimming of the region at the end of the read sequence overlapped the corresponding sequence by at least one base (mismatch tolerance: 20%). When reads containing N were present in at least one of Read1 and Read2, both Read1 and Read2 were removed. Trimming of low QV regions was performed on the read data after processing using the QV trimming program “Trimmomatic” under the following conditions. The window of 20 bases is slid from the 5' side, and the area where the average QV is less than 20 is trimmed. After trimming, only the reads with more than 50 bases remaining in both Read1 and Read2 were taken as output. The microbial community analysis based on 16S rRNA sequence was performed on the sequence data trimmed in the previous section using the microbial community analysis program “QIIME2”. The annotation program “sklearn” included in QIIME2 is used to annotate the ASV (OTU) sequences. […]

## CCCc1nc2c(C)cc(-c3nc4ccccc4n3C)cc2n1Cc1ccc(-c2ccccc2C(=O)O)cc1 [Telmisartan]
Line r190
  Abundance: Ruminococcaceae, Oscillospira, —: 135
Line r191
  Abundance: Ruminococcaceae, Oscillospira, —: 53
Line r192
  Abundance: Lachnospiraceae, [Ruminococcus], gnavus: 87
Line r193
  Abundance: Ruminococcaceae, Oscillospira, —: 42
Line r194
  Abundance: Lactobacillaceae, Lactobaccilus, reuteri: 0
Line r195
  Abundance: Coriobacteriaceae, Adlercreutzia, —: 0
Line r196
  Abundance: Lachnospiraceae, —, —: 0
Line r197
  Abundance: S24-7, —, —: 49
Line r198
  Abundance: Turicibacteraceae, Turicibacter, —: 0
Line r199
  Abundance: S24-7, —, —: 41
Line r200
  Abundance: Rikenellaceae, —, —: 86
Line r201
  Abundance: Enterobacteriaceae, Other, Other: 0
Line r202
  Abundance: Rikenellaceae, Other, Other: 53
Line r204
  Abundance: Lactobacillaceae, Lactobaccilus, Other: 0
Line r205
  Abundance: —, —, —: 0
Line r206
  Abundance: S24-7, —, —: 45
Line r207
  Abundance: S24-7, —, —: 109
Line r208
  Abundance: —, —, —: 19
Line r209
  Abundance: Enterobacteriaceae, Klebsiella, Other: 0
Line r210
  Abundance: —, —, —: 3
Line r211
  Abundance: Lachnospiraceae, Other, Other: 137
Line r212
  Abundance: Ruminococcaceae, Oscillospira, —: 0
Line r213
  Abundance: Ruminococcaceae, Oscillospira, —: 65
Line r214
  Abundance: Bacteroidaceae, Bacteroides, acidifaciens: 35
Line r215
  Abundance: Erysipelotrichaceae, —, —: 0
Line r216
  Abundance: Lachnospiraceae, Dorea, —: 74
Line r217
  Abundance: Enterobacteriaceae, Enterobacter, Other: 41
Line r218
  Abundance: Ruminococcaceae, Oscillospira, —: 45
Line r219
  Abundance: Ruminococcaceae, Other, Other: 12
Line r220
  Abundance: Ruminococcaceae, Oscillospira, —: 184
Line r221
  Abundance: Rikenellaceae, —, —: 43
Line r222
  Abundance: —, —, —: 79
Line r223
  Abundance: Lachnospiraceae, Other, Other: 273
Line r224
  Abundance: Other, Other, Other: 87
Line r225
  Abundance: Ruminococcaceae, Oscillospira, —: 72
Line r226
  Abundance: S24-7, —, —: 85
Line r227
  Abundance: Lachnospiraceae, —, —: 0
Line r228
  Abundance: Streptococcaceae, Staphylococcus, —: 27
Line r229
  Abundance: —, —, —: 0
Line r230
  Abundance: —, —, —: 0
Line r231
  Abundance: —, —, —: 101
Line r232
  Abundance: Other, Other, Other: 71
Line r233
  Abundance: Aerococcaceae, Aerococcus, —: 187
Line r234
  Abundance: Ruminococcaceae, —, —: 0
Line r235
  Abundance: —, —, —: 108
Line r237
  Abundance: Ruminococcaceae, Oscillospira, —: 26
Line r238
  Abundance: —, —, —: 51
Line r239
  Abundance: Ruminococcaceae, Ruminococcus, —: 43
Line r240
  Abundance: —, —, —: 266
Line r241
  Abundance: Other, Other, Other: 48
Line r242
  Abundance: Ruminococcaceae, Oscillospira, —: 0
Line r243
  Abundance: Lachnospiraceae, [Ruminococcus], gnavus: 95
Line r244
  Abundance: Lachnospiraceae, —, —: 0
Line r245
  Abundance: Other, Other, Other: 45
Line r246
  Abundance: Ruminococcaceae, Oscillospira, —: 23
Line r247
  Abundance: —, —, —: 90
Line r248
  Abundance: Other, Other, Other: 11
Line r249
  Abundance: Other, Other, Other: 53
Line r250
  Abundance: Other, Other, Other: 57
Line r251
  Abundance: Lachnospiraceae, Clostridium, Other: 101
Line r252
  Abundance: Lachnospiraceae, —, —: 23
Line r253
  Abundance: Other, Other, Other: 0
Line r254
  Abundance: Other, Other, Other: 51
Line r255
  Abundance: Ruminococcaceae, Oscillospira, —: 38
Line r256
  Abundance: Desulfovibrionaceae, —, —: 42
Line r257
  Abundance: Dehalobacteriaceae, Dehalobacterium, —: 0
Line r259
  Abundance: Ruminococcaceae, Ruminococcus, —: 22
Line r260
  Abundance: Lachnospiraceae, Coprococcus, —: 46
Line r261
  Abundance: Ruminococcaceae, Oscillospira, —: 77
Line r262
  Abundance: Other, Other, Other: 38
Line r263
  Abundance: Lachnospiraceae, Coprococcus, —: 49
Line r264
  Abundance: Ruminococcaceae, Oscillospira, —: 0
Line r265
  Abundance: Christensenellaceae, —, —: 9
Line r266
  Abundance: S24-7, —, —: 8
Line r267
  Abundance: Ruminococcaceae, Oscillospira, —: 0
Line r268
  Abundance: Lachnospiraceae, Coprococcus, —: 29
Line r269
  Abundance: Lachnospiraceae, Other, Other: 0
Line r271
  Abundance: Erysipelotrichaceae, Clostridium, cocleatum: 34
Line r272
  Abundance: —, —, —: 0
Line r273
  Abundance: Desulfovibrionaceae, Bilophila, —: 17
Line r274
  Abundance: —, —, —: 0
Line r275
  Abundance: Corynebacteriaceae, Corynebacterium, stationis: 0
Line r276
  Abundance: Lachnospiraceae, Other, Other: 34
Line r277
  Abundance: Lachnospiraceae, Other, Other: 82
Line r278
  Abundance: Lachnospiraceae, —, —: 10
Line r279
  Abundance: Lachnospiraceae, —, —: 0
Line r280
  Abundance: —, —, —: 0
Line r281
  Abundance: —, —, —: 84
Line r282
  Abundance: —, —, —: 0
Line r283
  Abundance: Ruminococcaceae, —, —: 0
Line r284
  Abundance: —, —, —: 0
Line r285
  Abundance: Lachnospiraceae, —, —: 0
Line r286
  Abundance: Dehalobacteriaceae, Dehalobacterium, —: 43
Line r287
  Abundance: Other, Other, Other: 68
Line r288
  Abundance: Streptococcaceae, Streptococcus, luteciae: 0
Line r289
  Abundance: —, —, —: 0
Line r290
  Abundance: S24-7, —, —: 36
Line r292
  Abundance: Ruminococcaceae, Ruminococcus, —: 0
Line r293
  Abundance: Lachnospiraceae, Clostridium, Other: 0
Line r294
  Abundance: —, —, —: 10
Line r295
  Abundance: Ruminococcaceae, Oscillospira, —: 22
Line r296
  Abundance: Lachnospiraceae, Coprococcus, —: 30
Line r297
  Abundance: —, —, —: 0
